Values of other authors, collected in publication PMC6500982 (Cancer Science, 2019).
Where two headings read alike, the source gives them in different places.

System: ABC DLBCL tumors
Conditions: cited from earlier work

In the case of C=CC(=O)N1CCC[C@@H](n2nc(-c3ccc(Oc4ccccc4)cc3)c3c(N)ncnc32)C1 [ibrutinib], the “Patients who responded to treatment” value (ABC tumors with B‐cell receptor mutations who also had MYD88 mutations) is given as 80% and the “Patients who responded to treatment” value (ABC tumors with B‐cell receptor mutations) is given as 55.5%.
